Data as given in patent publication US20230406883A1, “COMPOUNDS AND THEIR USE IN TREATMENT OF TACHYKININ RECEPTOR MEDIATED DISORDERS” (Embark Biotech ApS, priority 2020, published 2023).
pEC50: −log10 of the molar value. Values joined by “and” are separate entries in the source; they are usually repeats but may differ in a detail not shown here. Identical values can stand only once. Numbered stars: 1 amine (or outer) side, 2 acyl side, 3 side chain; on linkers, the order of the positions; unused ones are H or OH. Square brackets hold non-standard residues; d marks the D form. Peptide text beside a SMILES is read from it. * marks the point of attachment. C18 diacid = O=C(O)CCCCCCCCCCCCCCCCC(=O)*; γGlu = O=C(O)[C@H](CCC(=O)[*:2])N[*:1]; Conj‑Neu‑C18DA = not defined here; Cha = N[C@@H](CC1CCCCC1)C(=O)O; NMeL = CN[C@@H](CC(C)C)C(=O)O; hSer = N[C@@H](CCO)C(=O)O; Nle = CCCC[C@H](N)C(=O)O; AEEA = NCCOCCOCC(=O)O

Tests used:
Experiment in all cases: IP3 assay (inositol trisphosphate, 3H-myoinositol) in transiently transfected COS-7 cells
Assay type in all cases: cell-based
hNK1R = target: T1, hNK1R (Homo sapiens, UniProt P25103); conditions: for pEC50 / hNK1R, IP3 Efficacy: COS-7 cells; for pEC50: 0.2% ovalbumin buffer; for hNK1R, IP3 Efficacy: figure legends: percent of 10^-6 M NKA
T1 construct: host or cells: COS-7
Method: (§1) Agonist-induced G-protein coupled receptor (GPCR) activation was measured by an Inositol-1,4,5-Trisphosphate [^3H] Radioreceptor Assay (IPs Assay). Assays were carried out using COS-7 cells transiently transfected by calcium phosphate transfection with a vector pcDNA3.1(+) encoding one of the indicated receptors (Genscript). Briefly, DNA mixed with CaCl2 (2 M) and TE-buffer (10 mM Tris-HCl, 1 mM EDTA, pH 7.5) was dropwise added to 2×HBS (50 mM HEPES, 280 mM NaCl, 1.5 mM NaH2PO4, pH 7.2) and incubated for 45 min at room temperature (22±2° C.). The mixture and a final concentration of 100 μM Chloroquine were added to the cells and left to incubate for 5 hours at 37° C. under standard cell culture conditions (10% CO2) before changing medium to fresh medium containing 5 μl/mL Myo-[2-^3H(N)]-inositol (labelling medium).
(§2) The IP3 assay takes advantage of the tachykinin receptors' ability to induce production of the inositol trisphosphate (IP3) second messenger upon agonist (ligand) binding on receptor expressing cells following an initial ^3H-inositol labelling period. In effect this means that production of the second messenger IP3 as a measure of receptor activity can be assessed by counting ^3H-activity.
(§3) Assay solutions used: Wash buffer (HBSS), Assay buffer (HBSS+10 mM LiCl and 0,2% w/v ovalbumin), Lysis buffer (10 mM formic acid), and SPA YSI beads (12.5 mg/ml in H2O). The assay was performed the day after transfection. Briefly, labelling medium was aspirated, and plates were washed ×1 in wash buffer before adding 100 μl assay buffer, pre-incubated for 30 min followed by 120 min incubation with agonist, both at 37° C. After incubation, plates were immediately placed on ice and the incubation medium was aspirated and 40 μl of 10 mM formic acid per well was added. Plates were incubated for at least 30 min on ice. 60 μl (1 mg/well) SPA YSI beads/well was pipetted into a solid white 96 wells plate and 35 μl of the lysis solution was transferred to the plate before covering plates with seal cover and shaking for 10 min. (max speed). Centrifuge plates and leave for 8 hours at room temperature before counting the plates in a MicroBeta plate counter (Perkin Elmer).

hNK2R = target: T2, hNK2R (Homo sapiens, UniProt P21452); conditions: for pEC50 / hNK2R, IP3 Efficacy: COS-7 cells; for pEC50: 0.2% ovalbumin buffer; for hNK2R, IP3 Efficacy: figure legends: percent of 10^-6 M NKA
T2 construct: host or cells: COS-7
T2 sequence (P21452 1-398): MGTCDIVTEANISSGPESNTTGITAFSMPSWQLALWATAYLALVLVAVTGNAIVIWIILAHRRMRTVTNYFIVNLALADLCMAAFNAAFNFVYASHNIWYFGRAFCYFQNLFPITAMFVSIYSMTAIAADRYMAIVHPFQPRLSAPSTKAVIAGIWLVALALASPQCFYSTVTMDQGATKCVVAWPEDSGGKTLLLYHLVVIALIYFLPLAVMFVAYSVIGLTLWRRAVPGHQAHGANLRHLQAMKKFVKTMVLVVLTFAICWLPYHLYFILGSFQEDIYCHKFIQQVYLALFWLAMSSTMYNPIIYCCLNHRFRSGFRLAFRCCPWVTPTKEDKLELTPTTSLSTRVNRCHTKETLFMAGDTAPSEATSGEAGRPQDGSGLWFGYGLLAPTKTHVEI
Method: as §1, §2, §3

hNK3R = target: T3, hNK3R (Homo sapiens, UniProt P29371); conditions: for pEC50 / hNK3, IP3 Efficacy: COS-7 cells; for pEC50: 0.2% ovalbumin buffer, read-out: hNK3, IP3 EC50; for hNK3, IP3 Efficacy: figure legends: percent of 10^-6 M NKA
T3 construct: host or cells: COS-7
T3 sequence (P29371 1-465): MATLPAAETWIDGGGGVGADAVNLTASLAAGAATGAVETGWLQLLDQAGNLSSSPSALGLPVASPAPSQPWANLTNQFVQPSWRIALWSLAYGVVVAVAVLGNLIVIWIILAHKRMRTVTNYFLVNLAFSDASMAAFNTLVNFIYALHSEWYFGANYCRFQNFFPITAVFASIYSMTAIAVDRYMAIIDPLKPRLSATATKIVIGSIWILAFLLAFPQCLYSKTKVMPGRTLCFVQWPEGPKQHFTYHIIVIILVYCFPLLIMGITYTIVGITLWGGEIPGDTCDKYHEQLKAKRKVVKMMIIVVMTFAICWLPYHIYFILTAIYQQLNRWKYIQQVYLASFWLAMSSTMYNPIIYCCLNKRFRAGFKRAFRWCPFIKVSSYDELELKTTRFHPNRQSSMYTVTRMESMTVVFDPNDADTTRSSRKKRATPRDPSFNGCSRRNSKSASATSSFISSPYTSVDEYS
Method: as §1, §2, §3

T1 sequence (P25103 whole entry): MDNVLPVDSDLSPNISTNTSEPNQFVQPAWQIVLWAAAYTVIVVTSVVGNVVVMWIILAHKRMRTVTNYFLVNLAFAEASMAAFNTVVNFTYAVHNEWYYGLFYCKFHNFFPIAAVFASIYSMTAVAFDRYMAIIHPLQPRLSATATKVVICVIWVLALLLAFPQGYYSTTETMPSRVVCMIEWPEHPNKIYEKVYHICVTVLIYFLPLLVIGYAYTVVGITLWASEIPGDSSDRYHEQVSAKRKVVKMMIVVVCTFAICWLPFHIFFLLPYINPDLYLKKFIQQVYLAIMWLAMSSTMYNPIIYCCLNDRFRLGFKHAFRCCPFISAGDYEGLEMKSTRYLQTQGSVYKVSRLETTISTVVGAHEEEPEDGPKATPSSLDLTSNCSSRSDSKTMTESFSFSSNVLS

Row | Compound | pEC50 (hNK1R) | hNK1R, IP3 Efficacy (hNK1R) | pEC50 (hNK2R) | hNK2R, IP3 Efficacy (hNK2R) | pEC50 (hNK3R) | hNK3, IP3 Efficacy (hNK3R) | hNK1R receptor activation, in words (hNK1R) | hNK2R receptor activation, in words (hNK2R) | hNK3R receptor activation, in words (hNK3R)
1 | CCCC[C@H](NC(=O)[C@H](CC(C)C)N(C)C(=O)CNC(=O)[C@@H](NC(=O)[C@H](Cc1ccccc1)NC(=O)[C@H](CCCCN)NC(=O)[C@H](CCC(=O)O)NC(=O)COCCOCCNC(=O)COCCOCCNC(=O)CC[C@H](NC(=O)CCCCCCCCCCCCCCCCC(=O)O)C(=O)O)C(C)C)C(N)=O [compound 335, *Glu;Lys;Phe;Val;Gly;NmLeu;Nle;NH2] ({C18 diacid-γGlu-AEEA-AEEA}-EKFVG[NMeL][Nle]-NH2) | 7.44 | 70% and 72% | 8.80 | 80% | 6.95 | 100% | – | – | –
2 | CCCC[C@H](NC(=O)[C@H](CC(C)C)NC(=O)CNC(=O)[C@@H](NC(=O)[C@H](Cc1ccccc1)NC(=O)[C@H](CO)NC(=O)[C@H](CC(=O)O)NC(=O)[C@@H](NC(=O)[C@H](CCCCN)NC(=O)COCCOCCNC(=O)COCCOCCNC(=O)CC[C@H](NC(=O)CCCCCCCCCCCCCCCCC(=O)O)C(=O)O)[C@@H](C)O)C(C)C)C(N)=O [compound 308, *Lys;Thr;Asp;Ser;Phe;Val;Gly;Leu;Nle;NH2] | ~6.79 | 60% | 7.02 | 65% | 6.00 | 93% | – | – | –
3 | *Asp;Lys;Pro;Val;Gly;NmLeu;Nle;NH2 ({Conj‑Neu‑C18DA}-DKPVG[NMeL][Nle]-NH2; reading uncertain; also: printed as *Asp;Lys;Pro;Val;Gly;NmLeu;Nle;NH2) [compound 362, * is Conj-Neu-C18DA protractor on N-terminal α-amino group] | – | 0% | – | 0% | – | 0% | complete loss of receptor activation on NK1-3Rs | complete loss of receptor activation on NK1-3Rs | complete loss of receptor activation on NK1-3Rs
4 | CC(C)C[C@@H](C(=O)N[C@@H](CC1CCCCC1)C(N)=O)N(C)C(=O)CNC(=O)[C@@H](NC(=O)[C@H](Cc1ccc(O)cc1)NC(=O)[C@H](CCCCN)NC(=O)[C@H](CC(=O)O)NC(=O)COCCOCCNC(=O)COCCOCCNC(=O)CC[C@H](NC(=O)CCCCCCCCCCCCCCCCC(=O)O)C(=O)O)C(C)C [compound 313, *Asp;Lys;Tyr;Val;Gly;NmLeu;cHexAla;NH2] ({C18 diacid-γGlu-AEEA-AEEA}-DKYVG[NMeL][Cha]-NH2) | – | 20% | 7.64 | 70% | – | 0% | – | – | –
5 | COCC[C@H](NC(=O)[C@H](CC(C)C)N(C)C(=O)CNC(=O)[C@@H](NC(=O)[C@H](Cc1ccc(O)cc1)NC(=O)[C@H](CCCCN)NC(=O)[C@H](CCC(=O)O)NC(=O)COCCOCCNC(=O)COCCOCCNC(=O)CC[C@H](NC(=O)CCCCCCCCCCCCCCCCC(=O)O)C(=O)O)[C@@H](C)O)C(N)=O [compound 381, *Glu;Lys;Tyr;Thr;Gly;NmLeu;Metox;NH2] ({C18 diacid-γGlu-AEEA-AEEA}-EKYTG[NMeL][hSer](Me)-NH2) | – | 0% | 8.03 | 85% | – | 0% | – | – | –
6 | *Asp;Lys;Val;Tyr;Gly;NmLeu;Nle;NH2 ({Conj‑Neu‑C18DA}-DKVYG[NMeL][Nle]-NH2; reading uncertain; also: printed as *Asp;Lys;Val;Tyr;Gly;NmLeu;Nle;NH2) [compound 363, * is Conj-Neu-C18DA protractor on N-terminal α-amino group] | – | 0% | – | 0% | – | 0% | complete loss of receptor activation on NK1-3Rs | complete loss of receptor activation on NK1-3Rs | complete loss of receptor activation on NK1-3Rs
7 | CCCC[C@H](NC(=O)[C@H](CC(C)C)NC(=O)CNC(=O)[C@@H](NC(=O)[C@H](Cc1ccccc1)NC(=O)[C@H](CCCCN)NC(=O)[C@H](CC(=O)O)NC(=O)COCCOCCNC(=O)COCCOCCNC(=O)CC[C@H](NC(=O)CCCCCCCCCCCCCCCCC(=O)O)C(=O)O)C(C)C)C(N)=O [compound 389, *Asp;Lys;Phe;Val;Gly;Leu;Nle;NH2] | 7.80 and 7.82 | 108% and 100% | 8.55 and 8.54 | 83% and 80% | 7.46 | 100% and 60% | – | – | –
8 | CCCC[C@H](NC(=O)[C@H](CC(C)C)N(C)C(=O)CNC(=O)[C@@H](NC(=O)[C@H](Cc1ccccc1)NC(=O)[C@H](CCCNC(=N)N)NC(=O)[C@H](CC(=O)O)NC(=O)COCCOCCNC(=O)COCCOCCNC(=O)CC[C@H](NC(=O)CCCCCCCCCCCCCCCCC(=O)O)C(=O)O)C(C)C)C(N)=O [compound 306, *Asp;Arg;Phe;Val;Gly;NmLeu;Nle;NH2] ({C18 diacid-γGlu-AEEA-AEEA}-DRFVG[NMeL][Nle]-NH2) | 7.72 | 80% | 8.70 | 90% | 7.44 | 65% | – | – | –
9 | CCCC[C@H](NC(=O)[C@H](CC(C)C)N(C)C(=O)CNC(=O)[C@H](CCCNC(=N)N)NC(=O)[C@H](Cc1ccccc1)NC(=O)[C@H](CCCCN)NC(=O)[C@H](CCC(=O)O)NC(=O)COCCOCCNC(=O)COCCOCCNC(=O)CC[C@H](NC(=O)CCCCCCCCCCCCCCCCC(=O)O)C(=O)O)C(N)=O [compound 315, *Glu;Lys;Phe;Arg;Gly;NmLeu;Nle;NH2] ({C18 diacid-γGlu-AEEA-AEEA}-EKFRG[NMeL][Nle]-NH2) | – | 0% | 7.33 | 60% | – | 0% | – | – | –
10 | *Asp;Lys;dPhe;Val;Gly;NmLeu;Nle;NH2 (DKFVGLL; N-terminal Conj-Neu-C18DA protractor; C-terminal amide; (1)..(1) Conj-Neu-C18; MOD_RES (3)..(3) D-Phe; MOD_RES (6)..(6) N-methyl-Leucine; MOD_RES (7)..(7) AMIDATION; MOD_RES (7)..(7) Nle) [compound 356, * is Conj-Neu-C18DA protractor on N-terminal α-amino group] | – | 0% | – | 0% | – | 0% | – | completely destroys NK2R activation | –
11 | CCCC[C@H](NC(=O)[C@H](CC(C)C)N(C)C(=O)CNC(=O)[C@@H](NC(=O)[C@H](Cc1ccccc1)NC(=O)[C@H](CCCCN)NC(=O)[C@@H](N)CC(=O)O)C(C)C)C(N)=O [compound 375, Asp;Lys;Phe;Val;Gly;NmLeu;Nle;NH2] | 7.92 | 110% | 9.30 | 100% | ~4.30 | 35% | – | – | –
